Target: T1, K-Ras G12C (Homo sapiens, UniProt P01116, G12C)
T1 construct: This protein contained 188 amino acids in total, including an N-terminal 6-Histidine tag; made in house; host or cells: E. coli BL21
Assay: CAF assay (% CAF; method in Example 7, not in this part)
Type: binding

% CAF @ 10 uM, 1h (10 uM compound, 1 h incubation) [%] | % CAF @ 10 uM, 1h (10 uM, 1 h, Table 3) [%] | Compound | further results
88.6 |  | C=CC(=O)N1[C@H](C)CN(c2nc(=O)n3c4c(c(-c5ccc(F)cc5F)c(C(F)(F)F)cc24)SCC2(COC2)C3)C[C@@H]1C [Example 531, 8′-((3S,5R)-4-Acryloyl-3,5-dimethylpiperazin-1-yl)-11′-(2,4-difluorophenyl)-10′-(trifluoromethyl)-2′H,4′H,6′H-spiro[oxetane-3,3′-[1,4]thiazepino[2,3,4-ij]quinazolin]-6′-one] | 
94.7 |  | C=CC(=O)N1CCN(c2nc(=O)n3c4c(c(-c5ccc(F)cc5)c(C(F)(F)F)cc24)SC[C@@H]3CC2CCN(C3COC3)CC2)[C@@H](C)C1 [Example 425, (S)-7-((S)-4-acryloyl-2-methylpiperazin-1-fluorophenyl)-3-((1-(oxetan-3-yl)piperidin-4-yl)methyl)-9-(trifluoromethyl)-2H-[1,4]thiazino[2,3,4-ij]quinazolin-5(3H)-one] | 
 |  | C=CC(=O)N1CCN(c2nc(=O)n3c4c(c(-c5ccc(F)cc5F)c(Cl)cc24)SC[C@H]3CN2CCN(CC)CC2)[C@@H](C)C1 [Example 346, (3R)-7-((S)-4-acryloyl-2-methylpiperazin-1-yl)-9-chloro-10-(2,4-difluorophenyl)-3-((4-ethylpiperazin-1-yl)methyl)-2H-[1,4]thiazino[2,3,4-ij]quinazolin-5(3H)-one] | % CAF @ 10 μM, 1 h (10 μM, 1 h, Table 4): 79.3%
63.3 |  | C=CC(=O)N1CCN(c2nc(=O)n3c4c(c(-c5cc(Cl)c(F)cc5F)c(Cl)cc24)SC[C@@H]3CN2CCn3c(nnc3C(F)(F)F)C2)[C@@H](C)C1 [Example 447, (3S)-7-((S)-4-acryloyl-2-methylpiperazin-1-yl)-9-chloro-10-(5-chloro-2,4-difluorophenyl)-3-((3-(trifluoromethyl)-5,6-dihydro-[1,2,4]triazolo[4,3-a]pyrazin-7(8H)-yl)methyl)-2H-[1,4]thiazino[2,3,4-ij]quinazolin-5(3H)-one] | 
96 |  | C=CC(=O)N1CCN(c2nc(=O)n3c4c(c(-c5ccc(F)cc5F)c(C(F)(F)F)cc24)SC[C@H](OC)C3)[C@@H](C)C1 [Example 465, (3R)-8-((S)-4-acryloyl-2-methylpiperazin-1-yl)-11-(2,4-difluorophenyl)-3-methoxy-10-(trifluoromethyl)-3,4-dihydro-2H,6H-[1,4]thiazepino[2,3,4-ij]quinazolin-6-one] | 
93.3 |  | C=CC(=O)N1CCN(c2nc(=O)n3c4c(c(-c5ccc(F)cc5F)c(Cl)cc24)SC[C@@H]3CN2CCN(C)CC2)[C@@H](C)C1 [Example 411, (3S)-7-((S)-4-acryloyl-2-methylpiperazin-1-yl)-9-chloro-10-(2,4-difluorophenyl)-3-((4-methylpiperazin-1-yl)methyl)-2H-[1,4]thiazino[2,3,4-ij]quinazolin-5(3H)-one] | 
86.6 |  | C=CC(=O)N1CCN(c2nc(=O)n3c4c(c(-c5ccc(F)cc5F)c(Cl)cc24)SC[C@@H]3CC2CCN(CC)CC2)[C@@H](C)C1 [Example 413, (3S)-7-((S)-4-acryloyl-2-methylpiperazin-1-yl)-9-chloro-10-(2,4-difluorophenyl)-3-((1-ethylpiperidin-4-yl)methyl)-2H-[1,4]thiazino[2,3,4-ij]quinazolin-5(3H)-one] | 
 | 91.7 | C=CC(=O)N1CCN(c2nc(=O)n3c4c(c(-c5cccc6cnn(C)c56)c(Cl)cc24)SCC3)[C@@H](C)C1 (atropisomer, axis not shown) [Example 108, (R)-7-((S)-4-acryloyl-2-methylpiperazin-1-yl)-9-chloro-10-(1-methyl-1H-indazol-7-yl)-2,3-dihydro-5H-[1,4]thiazino[2,3,4-ij]quinazolin-5-one] | 
50.8 |  | C=CC(=O)N1C[C@H](C)N(c2nc(=O)n3c4c(c(-c5cc(Cl)c(F)cc5F)c(Cl)cc24)SC[C@@H]3CN2CCN(CC(F)F)CC2)C[C@H]1C [Example 495, (3S)-7-((2S,5R)-4-acryloyl-2,5-dimethylpiperazin-1-yl)-9-chloro-10-(5-chloro-2,4-difluorophenyl)-3-((4-(2,2-difluoroethyl)piperazin-1-yl)methyl)-2H-[1,4]thiazino[2,3,4-ij]quinazolin-5(3H)-one] | 
 | 95 | C[C@H]1CN(C(=O)/C=C/C(F)(F)F)CCN1c1nc(=O)n2c3c(c(-c4ccc(F)c(Cl)c4)c(Cl)cc13)SCC2 [Example 93, (S,E)-9-chloro-10-(3-chloro-4-fluorophenyl)-7-(2-methyl-4-(4,4,4-trifluorobut-2-enoyl)piperazin-1-yl)-2,3-dihydro-5H-[1,4]thiazino[2,3,4-ij]quinazolin-5-one] | 
 | 64.9 | C=CC(=O)N1CCN(c2nc(=O)n3c4c(c(-c5ccc(F)cc5F)c(Cl)cc24)SCC3)C2CSCC21 (stereo not shown) [Example 144, 7-(4-acryloylhexahydrothieno[3,4-b]pyrazin-1(2H)-yl)-9-chloro-10-(2,4-difluorophenyl)-2,3-dihydro-5H-[1,4]thiazino[2,3,4-ij]quinazolin-5-one] | 
10.4 |  | C=CC(=O)N1C[C@H](C)N(c2nc(=O)n3c4c(c(-c5ccc(F)cc5F)c(C(F)(F)F)cc24)SC[C@@H]3CN2CCN(CC#N)CC2)C[C@H]1C [Example 561, 2-(4-(((3S)-7-((2S,5R)-4-acryloyl-2,5-dimethylpiperazin-1-yl)-10-(2,4-difluorophenyl)-5-oxo-9-(trifluoromethyl)-3,5-dihydro-2H-[1,4]thiazino[2,3,4-ij]quinazolin-3-yl)methyl)piperazin-1-yl)acetonitrile] | 
 | 39 | C=CC(=O)N1CCN(c2nc(=O)n3c4c(c(-c5cc(C(F)F)ccc5F)c(Cl)cc24)SCC3)[C@@H](C)C1 [Example 162, 7-((S)-4-acryloyl-2-methylpiperazin-1-yl)-9-chloro-10-(5-(difluoromethyl)-2-fluorophenyl)-2,3-dihydro-5H-[1,4]thiazino[2,3,4-ij]quinazolin-5-one] | 
 | 45.2 | C=CC(=O)N1CCN(c2nc(=O)n3c4c(c(-c5c(F)cc(Cl)cc5F)c(Cl)cc24)SCC3)[C@@H](C)C1 [Example 106, (S)-7-(4-acryloyl-2-methylpiperazin-1-yl)-9-chloro-10-(4-chloro-2,6-difluorophenyl)-2,3-dihydro-5H-[1,4]thiazino[2,3,4-ij]quinazolin-5-one] | 
65.1 |  | C=CC(=O)N1C[C@H](C)N(c2nc(=O)n3c4c(c(-c5cc(Cl)c(F)cc5F)c(Cl)cc24)SC[C@@H]3COCCOC)C[C@H]1C [Example 502, (3S)-7-((2S,5R)-4-acryloyl-2,5-dimethylpiperazin-1-yl)-9-chloro-10-(5-chloro-2,4-difluorophenyl)-3-((2-methoxyethoxy)methyl)-2H-[1,4]thiazino[2,3,4-ij]quinazolin-5(3H)-one] | 
44.3 |  | C=CC(=O)N1C[C@H](C)N(c2nc(=O)n3c4c(c(-c5cc(Cl)c(F)cc5F)c(Cl)cc24)SC[C@@H]3CC2CCN(C3CC3)CC2)C[C@H]1C [Example 467, (3S)-7-((2S,5R)-4-acryloyl-2,5-dimethylpiperazin-1-yl)-9-chloro-10-(5-chloro-2,4-difluorophenyl)-3-((1-cyclopropylpiperidin-4-yl)methyl)-2H-[1,4]thiazino[2,3,4-ij]quinazolin-5(3H)-one] | 
 | 94.5 | C=CC(=O)N1CCN(c2nc(=O)n3c4c(c(-c5ccc(Cl)c(F)c5)c(Cl)cc24)SCC3)[C@@H](C)C1 [Example 89, (S)-7-(4-acryloyl-2-methylpiperazin-1-yl)-9-chloro-10-(4-chloro-3-fluorophenyl)-2,3-dihydro-5H-[1,4]thiazino[2,3,4-ij]quinazolin-5-one] | 
40.6 |  | C=CC(=O)N1C[C@H](C)N(c2nc(=O)n3c4c(c(-c5cc(Cl)c(F)cc5F)c(C(F)(F)F)cc24)SC[C@@H]3CN2CCN(CC(F)F)CC2)C[C@H]1C [Example 521, (3S)-7-((2S,5R)-4-acryloyl-2,5-dimethylpiperazin-1-yl)-10-(5-chloro-2,4-difluorophenyl)-3-((4-(2,2-difluoroethyl)piperazin-1-yl)methyl)-9-(trifluoromethyl)-2H-[1,4]thiazino[2,3,4-ij]quinazolin-5(3H)-one] | 
48.3 |  | C=CC(=O)N1[C@H](C)CN(c2nc(=O)n3c4c(c(-c5cc(Cl)c(F)cc5F)c(C(F)(F)F)cc24)SC[C@@H]3CN2CCC3(CC2)COC3)C[C@@H]1C (atropisomer, axis not shown) [Example 565, (3S,10S)-3-((2-oxa-7-azaspiro[3.5]nonan-7-yl)methyl)-7-((3S,5R)-4-acryloyl-3,5-dimethylpiperazin-1-yl)-10-(5-chloro-2,4-difluorophenyl)-9-(trifluoromethyl)-2,3-dihydro-5H-[1,4]thiazino[2,3,4-ij]quinazolin-5-one] | 

Compound | % CAF @ 10 uM, 1h (10 uM compound, 1 h incubation) [%] | % CAF @ 10 uM, 1h (10 uM, 1 h, Table 3) [%] | further results
C=CC(=O)N1C2CC(=O)CC1CN(c1nc(=O)n3c4c(c(-c5ccc(F)cc5F)c(C(F)(F)F)cc14)SC[C@@H]3COC)C2 [Example 571, (3S)-7-(9-acryloyl-7-oxo-3,9-diazabicyclo[3.3.1]nonan-3-yl)-10-(2,4-difluorophenyl)-3-(methoxymethyl)-9-(trifluoromethyl)-2H-[1,4]thiazino[2,3,4-ij]quinazolin-5(3H)-one] | 95.2 |  | 
C=CC(=O)N1CCN(c2nc(=O)n3c4c(c(-c5cc(Cl)c(F)cc5F)c(C(F)(F)F)cc24)SC[C@@H]3COCOC)[C@@H](C)C1 (atropisomer, axis not shown) [Example 553, (3S,10S)-7-((S)-4-acryloyl-2-methylpiperazin-1-yl)-10-(5-chloro-2,4-difluorophenyl)-3-((methoxymethoxy)methyl)-9-(trifluoromethyl)-2H-[1,4]thiazino[2,3,4-ij]quinazolin-5(3H)-one] | 37 |  | 
C=CC(=O)N1CCN(c2nc(=O)n3c4c(c(-c5ccc(F)cc5F)c(Cl)cc24)[S@+]([O-])CC3)[C@@H](C)C1 [Example 192, 7-((S)-4-acryloyl-2-methylpiperazin-1-yl)-9-chloro-10-(2,4-difluorophenyl)-2,3-dihydro-5H-[1,4]thiazino[2,3,4-ij]quinazolin-5-one 1-oxide] |  | 62.4 | 

From patent US20230107642A1 (Erasca, Inc., priority 2020, published 2023)
